Key:
[1] = Stability study of TA 2005 HFA solution formulation in MDI cans, 40° C. and 75% relative humidity; assay type: physicochemical; settings: three months, mean of two cans
Procedure: A formulation for delivering a nominal dose of 1 μg per actuation of TA 2005 was prepared with the composition as follows:
The formulation (120 actuations/canister, overage of 30 actuations) was filled in aluminium canisters having the internal surface coated with Teflon (two stage pressure filling) and fitted with a metering valve having a 63 μl metering chamber provided with a butyl rubber gasket as described in WO 03/078538 (Bespak) cited above. In particular, the gaskets were made of a bromobutyl rubber made of approximately 97% isobutylene and approximately 3% isoprene and having been polymerised by using an aluminium chloride catalyst and by treating the thus obtained isoprene-isobutylene rubber with bromine.
The same formulation was filled in the same kind of cans fitted with valves provided with EPDM rubber gaskets.
A stability study was carried out storing the formulation in upright and inverted cans at 40° C. and 75% relative humidity.
The stability test in Examples 1 and 2 was carried out both in upright and inverted cans. In inverted position, the formulation is in direct contact with the valve materials for all the duration of the test in order to detect possible chemical interactions with the valve materials that may negatively affect the stability of the active ingredient in the formulation. In upright cans the interactions between the valve materials and the formulation are very limited and so also the possible negative effects on the stability of the active ingredient in the formulation may be unnoticed.

[2] = 4 μg/63 μl, stored upright at 5° C., teflon-coated aluminium canisters, EPDM gaskets, after nine months; cited from earlier work

With `COc1ccc(C[C@@H](C)NC[C@H](O)c2ccc(O)c3[nH]c(=O)ccc23)cc1.Cl` [TA 2005, 8-hydroxy-5-[(1R)-1-hydroxy-2-[[(1R)-2-(4-methoxyphenyl)-1-methylethyl]amino]ethyl]-2(1H)-quinolinone hydrochloride] the “percent amount of TA 2005” value ([1]; inverted cans, EPDM rubber gaskets) was 77%, the “percent amount of TA 2005” value ([1]; inverted cans, bromobutyl rubber gaskets) was 97% and the “percent amount of TA 2005” value ([1]; upright cans, EPDM rubber gaskets) was 98%. For the same molecule, the “percent amount of TA 2005” value ([1]; upright cans, bromobutyl rubber gaskets) was 98% and the “TA 2005 assay” value [2] was “higher than 95%”.
